Source: PubChem BioAssay (NCI)
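GI50: concentration for 50% inhibition of growth. TGI denotes the concentration required for complete inhibition of growth.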

Assays:
Assay in all cases: NCI-60 cell line screen, 384-well format
A498 renal = test system: A498 renal
ACHN renal = test system: ACHN renal
CAKI-1 renal = test system: CAKI-1 renal
CCRF-CEM leukemia = test system: CCRF-CEM leukemia
EKVX NSCLC = test system: EKVX NSCLC
HCC-2998 colon = test system: HCC-2998 colon
HCT-116 colon = test system: HCT-116 colon
HCT-15 colon = test system: HCT-15 colon
HOP-62 NSCLC = test system: HOP-62 NSCLC
HOP-92 NSCLC = test system: HOP-92 NSCLC
HT29 colon = test system: HT29 colon
IGROV1 ovarian = test system: IGROV1 ovarian
K-562 leukemia = test system: K-562 leukemia
KM12 colon = test system: KM12 colon
M14 melanoma = test system: M14 melanoma
MALME-3M melanoma = test system: MALME-3M melanoma
MCF7 breast = test system: MCF7 breast
MDA-MB-231 breast = test system: MDA-MB-231 breast
MDA-MB-435 melanoma = test system: MDA-MB-435 melanoma
MDA-MB-468 breast = test system: MDA-MB-468 breast
MOLT-4 leukemia = test system: MOLT-4 leukemia
NCI-H226 lung = test system: NCI-H226 lung
NCI-H460 NSCLC = test system: NCI-H460 NSCLC
NCI/ADR-RES ovarian = test system: NCI/ADR-RES ovarian
OVCAR-3 ovarian = test system: OVCAR-3 ovarian
OVCAR-4 ovarian = test system: OVCAR-4 ovarian
OVCAR-5 ovarian = test system: OVCAR-5 ovarian
OVCAR-8 ovarian = test system: OVCAR-8 ovarian
PC-3 prostate = test system: PC-3 prostate
RPMI-8226 leukemia = test system: RPMI-8226 leukemia
SF-268 CNS = test system: SF-268 CNS
SF-295 CNS = test system: SF-295 CNS
SF-539 CNS = test system: SF-539 CNS
SK-MEL-2 melanoma = test system: SK-MEL-2 melanoma
SK-MEL-28 melanoma = test system: SK-MEL-28 melanoma
SK-MEL-5 melanoma = test system: SK-MEL-5 melanoma
SK-OV-3 ovarian = test system: SK-OV-3 ovarian
SN12C renal = test system: SN12C renal
SNB-19 CNS = test system: SNB-19 CNS
SNB-75 CNS = test system: SNB-75 CNS
SR leukemia = test system: SR leukemia
SW-620 colon = test system: SW-620 colon
T-47D breast = test system: T-47D breast
TK-10 renal = test system: TK-10 renal
U251 glioblastoma = test system: U251 glioblastoma
UACC-257 melanoma = test system: UACC-257 melanoma
UACC-62 melanoma = test system: UACC-62 melanoma

## C[C@H](N)C(=O)N1C[C@H](CCCB(O)O)[C@](N)(C(=O)O)C1
A498 renal
  GI50: > 100 µM
  TGI: > 100 µM
ACHN renal
  GI50: > 100 µM
  TGI: > 100 µM
CAKI-1 renal
  GI50: > 100 µM
  TGI: > 100 µM
CCRF-CEM leukemia
  GI50: > 100 µM
  TGI: > 100 µM
EKVX NSCLC
  GI50: > 100 µM
  TGI: > 100 µM
HCC-2998 colon
  GI50: > 100 µM
  TGI: > 100 µM
HCT-116 colon
  GI50: > 100 µM
  TGI: > 100 µM
HCT-15 colon
  GI50: > 100 µM
  TGI: > 100 µM
HOP-62 NSCLC
  GI50: > 100 µM
  TGI: > 100 µM
HOP-92 NSCLC
  GI50: > 100 µM
  TGI: > 100 µM
HT29 colon
  GI50: > 100 µM
  TGI: > 100 µM
IGROV1 ovarian
  GI50: > 100 µM
  TGI: > 100 µM
K-562 leukemia
  GI50: > 100 µM
  TGI: > 100 µM
KM12 colon
  GI50: > 100 µM
  TGI: > 100 µM
M14 melanoma
  GI50: > 86 µM
  TGI: > 100 µM
MALME-3M melanoma
  GI50: > 100 µM
  TGI: > 100 µM
MCF7 breast
  GI50: > 100 µM
  TGI: > 100 µM
MDA-MB-231 breast
  GI50: > 100 µM
  TGI: > 100 µM
MDA-MB-435 melanoma
  GI50: > 100 µM
  TGI: > 100 µM
MDA-MB-468 breast
  GI50: > 100 µM
  TGI: > 100 µM
MOLT-4 leukemia
  GI50: > 100 µM
  TGI: > 100 µM
NCI-H226 lung
  GI50: > 100 µM
  TGI: > 100 µM
NCI-H460 NSCLC
  GI50: > 100 µM
  TGI: > 100 µM
NCI/ADR-RES ovarian
  GI50: > 100 µM
  TGI: > 100 µM
OVCAR-3 ovarian
  GI50: > 100 µM
  TGI: > 100 µM
OVCAR-4 ovarian
  GI50: > 100 µM
  TGI: > 100 µM
OVCAR-5 ovarian
  GI50: > 100 µM
  TGI: > 100 µM
OVCAR-8 ovarian
  GI50: > 100 µM
  TGI: > 100 µM
PC-3 prostate
  GI50: > 100 µM
  TGI: > 100 µM
RPMI-8226 leukemia
  GI50: > 100 µM
  TGI: > 100 µM
SF-268 CNS
  GI50: > 100 µM
  TGI: > 100 µM
SF-295 CNS
  GI50: > 100 µM
  TGI: > 100 µM
SF-539 CNS
  GI50: > 100 µM
  TGI: > 100 µM
SK-MEL-2 melanoma
  GI50: > 100 µM
  TGI: > 100 µM
SK-MEL-28 melanoma
  GI50: > 100 µM
  TGI: > 100 µM
SK-MEL-5 melanoma
  GI50: > 100 µM
  TGI: > 100 µM
SK-OV-3 ovarian
  GI50: > 100 µM
  TGI: > 100 µM
SN12C renal
  GI50: > 100 µM
  TGI: > 100 µM
SNB-19 CNS
  GI50: > 100 µM
  TGI: > 100 µM
SNB-75 CNS
  GI50: > 100 µM
  TGI: > 100 µM
SR leukemia
  GI50: > 100 µM
  TGI: > 100 µM
SW-620 colon
  GI50: > 100 µM
  TGI: > 100 µM
T-47D breast
  GI50: > 100 µM
  TGI: > 100 µM
TK-10 renal
  GI50: > 100 µM
  TGI: > 100 µM
U251 glioblastoma
  GI50: > 100 µM
  TGI: > 100 µM
UACC-257 melanoma
  GI50: > 100 µM
  TGI: > 100 µM
UACC-62 melanoma
  GI50: > 100 µM
  TGI: > 100 µM
